“Also recorded” adds a separate entry of the source.
Columns and labels:
[1] = Visual verbal learning test (VVLT); format: in vivo, human; conditions: single dose; crossover study with placebo
Experimental: The visual verbal learning test (VVLT) is a test for learning and memory (de Haas 2009). Subjects are presented 30 words on a screen, one at a time, for 1 second with a 1-second interval between words over a total of […]. This is repeated in 3 trials. After each trial, subjects are asked to recall as many words as they can. After the third trial, there is a delay of 2.5 hours and subjects are then tested once for delayed recall. […] The effect for clenbuterol is an improvement in approximately 1.5 to 2 correctly recalled words, which is clinically meaningful. Since this was a crossover study, everyone who completed Part A was dosed with the 3 agents plus placebo.

[2] = Peripheral effects (heart rate by ECG, potassium, glucose) of Compound 03-5 with or without nadolol in healthy volunteers; format: in vivo, human
Experimental: Healthy volunteers were enrolled into 2 cohorts in a study to undertake within-subject dose titration of Compound 03-5 and/or nadolol in order to explore doses/dose combinations that mitigate peripheral effects of Compound 03-5, e.g. on heart rate, while preserving possible central effects of Compound 03-5 on cerebral perfusion and pupillary light reflex.
Eight healthy subjects aged 18-50 years were enrolled into Cohort D1 and received escalating doses of Compound 03-5 (3-12 mg) administered once daily 2 hours follow pre-administration of nadolol (1-40 mg). On all dosing days, study drug(s) were administered orally after an overnight fast of at least 8 hours.
(§1) In Cohort D2, 8 healthy volunteers aged 55-75 years were admitted on Day −1 for a 5-day confinement period at the research facility. During this confinement, subjects received escalating doses of open label Compound 03-5 (1-10 mg) once-daily from Day 1 through Day 3 2 hours after pre-administration of open-label nadolol (3 mg) one each for the 3 dosing days according to the schematic in FIG. 17. Subjects remained in-residency until all study procedures are completed on Day 4.

[3] = CANTAB cognition battery, Cohort D2 (Compound 03-5 with 3 mg nadolol); format: in vivo, human
Experimental: as §1
Compound 03-5 dose administration. Compound 03-5 was administered as escalating doses on Day 1 (1 mg), Day 2 (3 mg) and Day 3 (10 mg). CANTAB was conducted twice in all subjects on the day prior to start of dosing (Day −1) to familiarize subjects with the platform, and prior to dosing and approximately 3 hours after Compound 03-5 administration on Days 1, 2, and 3.

[4] = Adaptive tracking test (visuomotor coordination and vigilance); format: in vivo, human; conditions: single dose 160 μg clenbuterol
Text: Adaptive tracking measures visuomotor coordination and vigilance. In this test, the subject uses a joystick to move a small dot so that it stays within a continuously moving circle on a computer screen (Boland 1984). During the test, the speed of the circle is adjusted in response to the subject's ability to keep the dot in the circle, ensuring that the test is adapted to the individual subject. […] The improvement shown by subjects is in the same range as that seen with subjects treated with the acetylcholinesterase inhibitor donepezil, which is in clinical use for the treatment of mild to moderate AD (Groeneveld 2016).

[5] = Immediate word recall test (CANTAB), crossover study of clenbuterol with 1 mg nadolol vs placebo; format: in vivo, human; conditions: 80 μg clenbuterol with 1 mg nadolol once daily 14 days vs placebo; patients with neurodegenerative disorders
Text: The immediate word recall test measures the ability to encode and subsequently retrieve verbal information. Eighteen (18) words are presented, and subjects are subsequently asked to recall them; this is repeated 2 times.

[6] = Facial Expression Recognition Task (FERT), crossover study of clenbuterol with 1 mg nadolol vs placebo; format: in vivo, human; conditions: clenbuterol co-administered with low-dose nadolol vs placebo; patients
Text: The Facial Expression Recognition Task (FERT) assesses the recognition of facial emotions. […] Different intensity levels of each emotion are presented, which increases the ambiguity of the facial expression and the sensitivity of the task.

[7] = 80 μg clenbuterol alone, single dose, patients
[8] = Cerebral blood flow / cerebral perfusion by MRI-ASL after clenbuterol (with or without nadolol) or pindolol; conditions: for cerebral blood flow measured by MRI-ASL (FIG. 2): healthy volunteers, single dose, dose not stated in legend
[9] = Cerebral blood flow after a single dose of Compound 03-5 with or without nadolol; format: in vivo, human; conditions: single dose Compound 03-5 in the absence or presence of 3 mg nadolol
Text: Data are plotted as mean (±SEM) percent change in cerebral blood flow from baseline in brain regions of interest for movement (the precentral gyrus) and mood, anhedonia and cognition (hippocampus, thalamus, amygdala).

[10] = monotherapy Compound 03-5 0.3-6 mg, healthy volunteers

Question: Which “effect on VVLT / number of words recalled correctly” value [1] does the source give for `CC(C)(C)NCC(O)c1ccc(O)c(CO)c1` (centres unmarked) [salbutamol] here?
Answer: improvements in cognition; also recorded: positive effects

Question: With `CC(C)(C)NCC(O)COc1cccc2c1CC(O)C(O)C2` (centres unmarked) [nadolol] as the compound, how does the “effect of nadolol on blood potassium decrease induced by Compound 03-5” value ([2]; 3 mg nadolol, cohort D2) read?
Answer: inhibited

Question: And the “effect of nadolol on heart rate increase induced by Compound 03-5” value ([2]; 3 mg nadolol, cohort D2)?
Answer: inhibited

Question: And the “effect of nadolol on peripheral effects of Compound 03-5 (heart rate, glucose, potassium, tachycardia, tremor, palpitations)” value ([2]; Cohort D1, nadolol 1 mg up to 40 mg, Compound 03-5 3-12 mg)?
Answer: blocked

Question: And the “effect of nadolol on peripheral effects of Compound 03-5 (heart rate, glucose, potassium)” value ([2]; Cohort D2, nadolol 3 mg, Compound 03-5 1-10 mg)?
Answer: blocked

Question: What about the “effect of nadolol on heart rate increase, hyperglycemia and hypokalemia of Compound 03-5” value ([2]; Cohort D2 and other cohorts, 1 mg nadolol pre-administered, Compound 03-5 oral up to 6 mg) of the same compound?
Answer: substantially attenuated

Question: What about the “effect of nadolol on effects of Compound 03-5 on blood glucose and potassium, tachycardia, tremor and palpitations” value ([2]; pre-administration of 1 mg nadolol, earlier cohorts) of the same compound?
Answer: attenuation

Question: And the “effect of nadolol on pro-cognitive central effects of the β2-AR agonist” value ([3]; low dose nadolol 3 mg)?
Answer: without inhibiting

Question: Which “performance in adaptive tracking (percent time dot kept within moving circle)” value [4] does the source give for `CC(C)(C)NCC(O)c1cc(Cl)c(N)c(Cl)c1` (centres unmarked) [clenbuterol] here?
Answer: improved performance; also recorded: improves

Question: And the “cognition as measured by adaptive tracking and word recall” value ([4]; healthy subjects, preliminary data)?
Answer: improves cognition

Question: And the “effect on VVLT / number of words recalled correctly” value [1]?
Answer: improvements in cognition; also recorded: positive effects

Question: What about the “number of words correctly recalled, immediate verbal recall” value [5] of the same compound?
Answer: statistically significant increase

Question: What about the “accuracy of correctly identifying happy facial expressions (FERT)” value [6] of the same compound?
Answer: statistically significant increase

Question: And the “glucose in the blood, change from baseline” value [7]?
Answer: increases

Question: And the “heart rate, change from baseline” value [7]?
Answer: increases

Question: What about the “potassium in the blood, change from baseline” value [7] of the same compound?
Answer: decreases

Question: What about the “cerebral perfusion increase as measured by CBF” value ([8]; clenbuterol 40 μg) of the same compound?
Answer: minimal increase

Question: And the “improvements in perfusion in brain areas relevant to neurodegenerative disorders” value ([8]; clenbuterol 80 and 160 μg)?
Answer: ~25%

Question: And the “increase in cerebral perfusion, precentral gyrus” value ([8]; clenbuterol 80 and 160 μg)?
Answer: 20-40%

Question: What about the “cerebral perfusion increase as measured by CBF” value ([8]; clenbuterol doses below 30 μg) of the same compound?
Answer: do not produce significant cerebral perfusion increases

Question: And the “cerebral blood flow measured by MRI-ASL (FIG. 2)” value [8]?
Answer: increases

Question: What about the “cerebral blood flow from the baseline” value ([8]; patients, single dose clenbuterol 30 to 160 μg and/or nadolol 5 mg, tracked 3 days) of the same compound?
Answer: robust global increase

Question: And the “increase in hippocampal perfusion, average” value ([8]; single dose 80 μg clenbuterol, 6 healthy subjects, ROI hippocampus)?
Answer: 25%

Question: And the “cerebral blood flow (CBF) / cerebral perfusion relative to baseline” value ([8]; single dose clenbuterol 160 μg)?
Answer: global increases; also recorded: robust global increase; also recorded: robust, global increase

Question: And the “cerebral blood flow (CBF) relative to baseline” value ([8]; single dose clenbuterol 160 μg with nadolol 5 mg)?
Answer: global increases; also recorded: robust global increase

Question: And the “cerebral blood flow (CBF) relative to baseline” value ([8]; single dose clenbuterol 20 to 160 μg, tracked 3 days)?
Answer: robust global increase

Question: For `CC(C)(C)NC[C@H](O)c1cccc(C#N)n1` [Compound 03-5, (S)-6-(2-(tert-butylamino)-1-hydroxyethyl)picolinonitrile], which “mean maximum increase in heart rate” value ([2]; 6 mg Compound 03-5 after pre-administration of 1 mg nadolol) is on record?
Answer: 7 beats per minute

Question: And the blood potassium concentrations [2, 10]?
Answer: dose-dependent decreases

Question: And the “heart rate, change from baseline (triplicate ECG)” value [2, 10]?
Answer: dose-dependent increases

Question: And the “cognition, performance in CANTAB battery” value ([3]; Cohort D2, Compound 03-5 1, 3 and 10 mg on Days 1, 2, 3 with 3 mg nadolol, healthy adults 55-75 years)?
Answer: Improvements in cognition; also recorded: improvements in performance

Question: What about the “cerebral blood flow from baseline (precentral gyrus, hippocampus, thalamus, amygdala)” value [9] of the same compound?
Answer: robust, global increases

Question: With `CC(C)NCC(O)COc1cccc2[nH]ccc12` (centres unmarked) [pindolol] as the compound, how does the “cerebral blood flow measured by MRI-ASL (FIG. 2)” value [8] read?
Answer: lack of increase
